The experiment concerns the target T1, human RNR (histidine tagged human M1 and human M2 proteins) (Homo sapiens, UniProt P23921).
T1 construct: made in house; host or cells: Escherichia coli
T1 sequence (P23921 1-792): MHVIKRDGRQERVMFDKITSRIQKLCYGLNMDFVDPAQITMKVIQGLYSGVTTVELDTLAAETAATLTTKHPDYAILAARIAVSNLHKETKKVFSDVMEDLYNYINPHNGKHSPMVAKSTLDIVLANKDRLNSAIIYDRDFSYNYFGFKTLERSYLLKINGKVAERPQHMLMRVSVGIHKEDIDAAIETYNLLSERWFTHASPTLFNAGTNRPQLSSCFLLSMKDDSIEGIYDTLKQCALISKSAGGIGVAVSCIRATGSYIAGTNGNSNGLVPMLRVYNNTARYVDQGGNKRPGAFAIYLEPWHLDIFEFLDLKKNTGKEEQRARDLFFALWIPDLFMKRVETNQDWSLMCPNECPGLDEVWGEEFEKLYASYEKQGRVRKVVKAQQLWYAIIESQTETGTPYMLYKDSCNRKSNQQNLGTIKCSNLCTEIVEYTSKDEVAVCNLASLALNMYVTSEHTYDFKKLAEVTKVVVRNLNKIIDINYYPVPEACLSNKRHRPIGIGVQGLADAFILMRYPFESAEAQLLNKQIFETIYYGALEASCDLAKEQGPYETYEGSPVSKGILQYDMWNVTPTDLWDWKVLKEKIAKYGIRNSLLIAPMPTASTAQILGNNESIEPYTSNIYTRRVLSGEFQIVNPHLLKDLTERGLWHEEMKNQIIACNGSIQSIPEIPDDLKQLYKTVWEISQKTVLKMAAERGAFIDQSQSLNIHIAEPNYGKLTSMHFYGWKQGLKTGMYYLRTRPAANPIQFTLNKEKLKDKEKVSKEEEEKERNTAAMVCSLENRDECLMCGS
Briefly: Human RNR inhibition effect (dCDP formation from CDP). It counts as biochemical. To be noted: 10 μM CDP, 37° C. for 30 minutes, read-out: RNR inhibitory activity IC50. In outline:
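His-tagged human M1 (isoform 1) and N-terminal 59-aa-truncated M2 (isoform 2), E. coli-expressed, Ni-purified, preincubated 20 min with compound (1% DMSO). Reaction with 10 μM CDP, 2 mM ATP, 0.24 mM NADPH, 6 mM DTT, 4 mM Mg acetate, 100 mM KCl, 50 mM HEPES pH 7.2, 30 min at 37° C. dCDP formed quantified by reverse-phase HPLC after heat stop.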

SMILES strings stand for the structures.

Results on 22 molecules are retold here after patent US20200405697A1, “Antitumor Agent” (Taiho Pharmaceutical Co., Ltd, priority 2017, published 2020).

In general, IC50 refers to the midpoint of a concentration-inhibition curve.

`CC(=O)OC1(C)CCOc2c(S(=O)(=O)N[C@H](c3n[nH]c(=O)o3)[C@H](C)c3c(F)ccc(Br)c3C)ccc(Cl)c21` (stereo partly shown) [Example 167]: the IC50 was 80 nM.
To `Cc1ccc(F)c([C@@H](C)[C@H](NS(=O)(=O)c2ccc(Cl)c(C(N)=O)n2)c2n[nH]c(=O)o2)c1C` [Example 31, 3-chloro-6-(N-((1S,2R)-2-(6-fluoro-2,3-dimethylphenyl)-1-(5-oxo-4,5-dihydro-1,3,4-oxadiazol-2-yl)propyl)sulfamoyl)picolinamide] belongs 100 nM; to `Cc1ccc(F)c([C@@H](C)[C@H](NS(=O)(=O)c2ccc3[nH]c(=O)[nH]c3c2)c2n[nH]c(=O)o2)c1C` [Example 165, N-((1S,2R)-2-(6-fluoro-2,3-dimethylphenyl)-1-(5-oxo-4,5-dihydro-1,3,4-oxadiazol-2-yl)propyl)-2-oxo-2,3-dihydro-1H-benzo[d]imidazole-5-sulfonamide], 830 nM; to `Cc1c(Br)ccc(F)c1[C@@H](C)[C@H](NS(=O)(=O)c1ccc(Cl)c2c1OCCC2(C)N)c1n[nH]c(=O)o1` (stereo partly drawn) [Example 329, 4-amino-N-((1S,2R)-2-(3-bromo-6-fluoro-2-methylphenyl)-1-(5-oxo-4,5-dihydro-1,3,4-oxadiazol-2-yl)propyl)-5-chloro-4-methyl-chroman-8-sulfonamide], 60 nM.
To `COc1cc(Cl)ccc1S(=O)(=O)N[C@H](c1n[nH]c(=O)o1)[C@H](C)c1c(F)ccc(-c2ccc(Cl)nc2)c1C` [Example 313, 4-chloro-N-((1S,2R)-2-(3-(6-chloropyridin-3-yl)-6-fluoro-2-methylphenyl)-1-(5-oxo-4,5-dihydro-1,3,4-oxadiazol-2-yl)propyl)-2-methoxybenzenesulfonamide] belongs 340 nM.
To `COc1c(S(=O)(=O)N[C@H](c2n[nH]c(=O)o2)[C@H](C)c2c(F)ccc(C)c2C)ccc(Cl)c1C(C)(C)O` [Example 212, 4-chloro-N-((1S,2R)-2-(6-fluoro-2,3-dimethylphenyl)-1-(5-oxo-4,5-dihydro-1,3,4-oxadiazol-2-yl)propyl)-3-(2-hydroxypropan-2-yl)-2-methoxybenzenesulfonamide] belongs 110 nM; to `Cc1ccc(F)c([C@@H](C)[C@H](NS(=O)(=O)c2ccc(Cl)c3c2OCC(=O)N3C)c2n[nH]c(=O)o2)c1C` [Example 93, 5-chloro-N-((1S,2R)-2-(6-fluoro-2,3-dimethylphenyl)-1-(5-oxo-4,5-dihydro-1,3,4-oxadiazol-2-yl)propyl)-4-methyl-3-oxo-3,4-dihydro-2H-benzo[b][1,4]oxazine-8-sulfonamide], 100 nM; to `Cc1c(-c2cnn(C)c2)ccc(F)c1[C@@H](C)[C@H](NS(=O)(=O)c1ccc(Cl)cc1C(N)=O)c1n[nH]c(=O)o1` [Example 324, 5-chloro-2-(N-((1S,2R)-2-(6-fluoro-2-methyl-3-(1-methyl-1H-pyrazol-4-yl)phenyl)-1-(5-oxo-4,5-dihydro-1,3,4-oxadiazol-2-yl)propyl)sulfamoyl)benzamide], 170 nM.
Consider `CNC(=O)c1cc(Cl)ccc1S(=O)(=O)N[C@H](c1n[nH]c(=O)o1)[C@H](C)c1c(F)ccc(C)c1C` [Example 277, 5-chloro-2-(N-((1S,2R)-2-(6-fluoro-2,3-dimethylphenyl)-1-(5-oxo-4,5-dihydro-1,3,4-oxadiazol-2-yl)propyl)sulfamoyl)-N-methylbenzamide], for which the IC50 turned out to be 370 nM.
To `Cc1ccc(F)c([C@@H](C)[C@H](NS(=O)(=O)c2ccc(Cl)c(C(=O)N3CCC4(CC3)COC4)n2)c2n[nH]c(=O)o2)c1C` [Example 156, 5-chloro-N-((1S,2R)-2-(6-fluoro-2,3-dimethylphenyl)-1-(5-oxo-4,5-dihydro-1,3,4-oxadiazol-2-yl)propyl)-6-(2-oxa-7-azaspiro[3.5]nonane-7-carbonyl)pyridine-2-sulfonamide] belongs 80 nM; to `Cc1ccc(F)c([C@@H](C)[C@H](NS(=O)(=O)c2ccc(Cl)c3c2OCCC3=O)c2n[nH]c(=O)o2)c1C` [Example 88, 5-chloro-N-((1S,2R)-2-(6-fluoro-2,3-dimethylphenyl)-1-(5-oxo-4,5-dihydro-1,3,4-oxadiazol-2-yl)propyl)-4-oxochroman-8-sulfonamide], 150 nM.
To `Cc1ccc(F)c([C@@H](C)[C@H](NS(=O)(=O)c2ccc(Cl)cc2C(=O)O)c2n[nH]c(=O)o2)c1C` [Example 210, 5-chloro-2-(N-((1S,2R)-2-(6-fluoro-2,3-dimethylphenyl)-1-(5-oxo-4,5-dihydro-1,3,4-oxadiazol-2-yl)propyl)sulfamoyl)benzoic acid] belongs 180 nM.
For `Cc1ccc(F)c([C@@H](C)[C@H](NS(=O)(=O)c2ccc(Cl)c(C(C)(C)O)n2)c2n[nH]c(=O)o2)c1C` [Example 193, 5-chloro-N-((1S,2R)-2-(6-fluoro-2,3-dimethylphenyl)-1-(5-oxo-4,5-dihydro-1,3,4-oxadiazol-2-yl)propyl)-6-(2-hydroxypropan-2-yl)pyridine-2-sulfonamide], the IC50 worked out at 90 nM.
With `COc1cc(Cl)ccc1S(=O)(=O)N[C@H](c1n[nH]c(=O)o1)[C@H](C)c1cccc(C)c1C(C)C` [Example 85, 4-chloro-N-((1S,2R)-2-(2-isopropyl-3-methylphenyl)-1-(5-oxo-4,5-dihydro-1,3,4-oxadiazol-2-yl)propyl)-2-methoxybenzenesulfonamide], the IC50 was found to be 840 nM.
To `Cc1c(Br)ccc(F)c1[C@@H](C)[C@H](NS(=O)(=O)c1ncc(Cl)cc1C(N)=O)c1n[nH]c(=O)o1` [Example 264, 2-(N-((1S,2R)-2-(3-bromo-6-fluoro-2-methylphenyl)-1-(5-oxo-4,5-dihydro-1,3,4-oxadiazol-2-yl)propyl)sulfamoyl)-5-chloronicotinamide] belongs 60 nM; to `Cc1ccc(F)c([C@@H](C)[C@H](NS(=O)(=O)c2cc(F)c(Br)cc2F)c2n[nH]c(=O)o2)c1C` [Example 339, 4-bromo-2,5-difluoro-N-((1S,2R)-(6-fluoro-2,3-dimethylphenyl)-1-(5-oxo-4,5-dihydro-1,3,4-oxadiazol-2-yl)propyl)benzenesulfonamide], 510 nM; to `[2H]C([2H])([2H])[C@H](c1c(F)ccc(C)c1C)[C@H](NS(=O)(=O)c1ccc(Cl)cc1C(N)=O)c1n[nH]c(=O)o1` [Example 43, 5-chloro-2-[[(1S,2R)-3,3,3-trideuterio-2-(6-fluoro-2,3-dimethylphenyl)-1-(2-oxo-3H-1,3,4-oxadiazol-5-yl)propyl]sulfamoyl]benzamide], 80 nM.
To `COC(=O)c1cc(Cl)c(N)cc1S(=O)(=O)N[C@H](c1n[nH]c(=O)o1)[C@H](C)c1c(F)ccc(C)c1C` [Example 272, methyl 4-amino-5-chloro-2-(N-((1S,2R)-2-(6-fluoro-2,3-dimethylphenyl)-1-(5-oxo-4,5-dihydro-1,3,4-oxadiazol-2-yl)propyl)sulfamoyl)benzoate] belongs 660 nM.
To `Cc1ccc(F)c([C@@H](C)[C@H](NS(=O)(=O)c2ccccc2C#N)c2n[nH]c(=O)o2)c1C` [Example 98, 2-cyano-N-((1S,2R)-2-(6-fluoro-2,3-dimethylphenyl)-1-(5-oxo-4,5-dihydro-1,3,4-oxadiazol-2-yl)propyl)benzenesulfonamide] belongs 640 nM.
On to `Cc1ccc(F)c([C@@H](C)[C@H](NS(=O)(=O)c2ccc3c(c2)OCCO3)c2n[nH]c(=O)o2)c1C` [Example 173, N-((1S,2R)-2-(6-fluoro-2,3-dimethylphenyl)-1-(5-oxo-4,5-dihydro-1,3,4-oxadiazol-2-yl)propyl)-2,3-dihydrobenzo[b][1,4]dioxin-6-sulfonamide], for which the IC50 amounted to 130 nM.
To `COc1cc(Cl)ccc1S(=O)(=O)N[C@H](c1n[nH]c(=O)o1)[C@H](C)c1c(F)ccc(-c2cnn(C(F)F)c2)c1C` [Example 304, 4-chloro-N-((1S,2R)-2-(3-(1-(difluoromethyl)-1H-pyrazol-4-yl)-6-fluoro-2-methylphenyl)-1-(5-oxo-4,5-dihydro-1,3,4-oxadiazol-2-yl)propyl)-2-methoxybenzenesulfonamide] belongs 160 nM; to `COc1cc(C(N)=O)c(S(=O)(=O)N[C@H](c2n[nH]c(=O)o2)[C@H](C)c2c(F)ccc(C)c2C)cc1OC` [Example 260, 2-(N-((1S,2R)-2-(6-fluoro-2,3-dimethylphenyl)-1-(5-oxo-4,5-dihydro-1,3,4-oxadiazol-2-yl)propyl)sulfamoyl)-4,5-dimethoxybenzamide], 360 nM.
